Laboratory results taken from article PMC3082437 (Journal of biomolecular screening, 2010).
Where two headings read alike, the source gives them in different places. Where a SMILES comes first, the peptide text is derived from it. The star is where a group is joined. Cbz = O=C(OCc1ccccc1)*

System: K328M-Wee1-Luc fusion protein in transiently transfected HeLa cells
Assay: K328M-Wee1-Luc degradation
Format: cell-based

## CC(C)C[C@@H](C=O)NC(=O)[C@H](CC(C)C)NC(=O)[C@H](CC(C)C)NC(=O)OCc1ccccc1 [MG132, Z-Leu-Leu-Leu-CHO] (Cbz-Leu-Leu-Leu-aldehyde)
  hill slope of dose-response curve: > 2.5
30 μM, vs DMSO
  increase in luminescent levels: > 9 fold
Optimized 1536-well protocol, n=5
  EC50: 4.69 µM
read-out: EC50, different thawed vials from a single batch, n=4
  EC50: 4.7 µM
read-out: EC50, non-cryopreserved cells, non-cryopreserved cell suspensions
  EC50: 5.33 µM
